Test results from ChEMBL document CHEMBL1201862, “PubChem BioAssay data set” (2004).
Calls of active or inactive are those of the source.

Experiments:
Troponin, cardiac muscle = Troponin, cardiac muscle (Homo sapiens, UniProt P19429+P45379+P63316); assay: Fluorescence-based biochemical high throughput dose response assay for activators of the calcium sensitivity of cardiac Regulated Thin Filaments (RTF). [Related pubchem assays (depositor defined):AID493008, AID493018, AID504382, AID504383]; format: protein-complex assay
[1] = molecular target: Peroxisome proliferator-activated receptor gamma/Nuclear receptor coactivator 2 (Homo sapiens, UniProt P37231); format: functional;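 note: agonist potency for raising coactivator recruitment to the receptor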
[2] = molecular target: Peroxisome proliferator-activated receptor gamma/Nuclear receptor coactivator 3 (Homo sapiens, UniProt P37231); format: functional;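 note: agonist potency for raising coactivator recruitment to the receptor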
Sequence of Peroxisome proliferator-activated receptor gamma/Nuclear receptor coactivator 3 (P37231 whole entry): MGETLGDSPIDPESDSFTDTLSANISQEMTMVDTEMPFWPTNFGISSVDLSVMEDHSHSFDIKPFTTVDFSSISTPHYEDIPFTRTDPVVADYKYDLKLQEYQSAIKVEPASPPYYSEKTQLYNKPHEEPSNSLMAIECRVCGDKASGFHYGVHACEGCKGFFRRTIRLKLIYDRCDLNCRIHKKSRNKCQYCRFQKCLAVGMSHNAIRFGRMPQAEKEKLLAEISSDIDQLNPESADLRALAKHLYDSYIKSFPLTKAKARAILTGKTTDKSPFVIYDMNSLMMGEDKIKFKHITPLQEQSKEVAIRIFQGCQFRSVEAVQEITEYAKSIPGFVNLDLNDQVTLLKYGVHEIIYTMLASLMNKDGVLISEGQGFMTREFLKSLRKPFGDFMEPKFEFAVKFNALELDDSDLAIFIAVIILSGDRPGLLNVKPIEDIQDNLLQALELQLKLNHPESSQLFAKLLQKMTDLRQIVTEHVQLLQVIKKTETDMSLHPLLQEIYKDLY
Sequence of Peroxisome proliferator-activated receptor gamma/Nuclear receptor coactivator 3 (Q9Y6Q9 whole entry, further chain): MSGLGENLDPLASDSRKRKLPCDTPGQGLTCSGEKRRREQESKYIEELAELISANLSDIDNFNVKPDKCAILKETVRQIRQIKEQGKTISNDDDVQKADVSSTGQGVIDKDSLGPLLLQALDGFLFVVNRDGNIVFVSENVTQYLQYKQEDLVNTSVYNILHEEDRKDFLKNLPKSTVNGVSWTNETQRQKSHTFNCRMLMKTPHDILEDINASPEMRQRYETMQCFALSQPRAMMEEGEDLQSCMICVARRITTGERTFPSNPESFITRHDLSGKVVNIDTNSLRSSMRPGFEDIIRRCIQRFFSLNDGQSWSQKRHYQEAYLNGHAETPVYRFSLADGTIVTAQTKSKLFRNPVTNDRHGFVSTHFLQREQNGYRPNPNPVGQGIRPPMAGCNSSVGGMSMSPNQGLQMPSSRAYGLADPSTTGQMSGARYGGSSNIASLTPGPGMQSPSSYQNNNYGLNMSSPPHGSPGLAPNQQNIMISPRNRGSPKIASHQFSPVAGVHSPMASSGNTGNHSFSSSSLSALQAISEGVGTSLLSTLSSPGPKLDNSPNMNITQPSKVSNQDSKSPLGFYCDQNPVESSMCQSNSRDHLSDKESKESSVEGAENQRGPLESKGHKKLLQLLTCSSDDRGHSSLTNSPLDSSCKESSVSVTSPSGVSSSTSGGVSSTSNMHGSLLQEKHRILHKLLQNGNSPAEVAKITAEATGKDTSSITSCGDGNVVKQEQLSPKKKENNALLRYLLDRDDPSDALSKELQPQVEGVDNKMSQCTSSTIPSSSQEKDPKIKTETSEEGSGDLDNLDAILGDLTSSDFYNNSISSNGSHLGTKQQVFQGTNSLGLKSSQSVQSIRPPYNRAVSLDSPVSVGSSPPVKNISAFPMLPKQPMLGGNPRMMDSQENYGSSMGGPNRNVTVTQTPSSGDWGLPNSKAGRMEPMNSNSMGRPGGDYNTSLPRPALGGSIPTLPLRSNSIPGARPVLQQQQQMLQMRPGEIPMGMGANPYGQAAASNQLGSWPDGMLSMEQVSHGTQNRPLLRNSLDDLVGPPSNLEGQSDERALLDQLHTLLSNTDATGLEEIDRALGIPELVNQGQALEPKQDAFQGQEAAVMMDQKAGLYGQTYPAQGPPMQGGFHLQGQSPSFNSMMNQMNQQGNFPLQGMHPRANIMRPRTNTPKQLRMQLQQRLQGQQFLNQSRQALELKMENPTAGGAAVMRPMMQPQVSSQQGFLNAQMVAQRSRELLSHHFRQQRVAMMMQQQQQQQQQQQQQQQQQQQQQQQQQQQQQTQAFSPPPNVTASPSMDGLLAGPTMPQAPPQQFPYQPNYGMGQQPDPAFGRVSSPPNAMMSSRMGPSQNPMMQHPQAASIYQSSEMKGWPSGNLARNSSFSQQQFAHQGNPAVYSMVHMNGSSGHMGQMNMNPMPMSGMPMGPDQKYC

[3] = molecular target: Peroxisome proliferator-activated receptor gamma/Nuclear receptor coactivator 1 (Homo sapiens, UniProt P37231); format: functional;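 note: agonist potency as compounds enhance coactivator SRC-1 recruitment to PPARgamma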
[4] = LGR2 antagonists, dose response, cell-based, HEK293, CRE-luciferase reporter, cherry pick, set 2 (AID 743343); format: functional;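 note: transfected cells were stimulated with diluted bursicon conditioned medium after compound addition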
cells [5] = format: functional, cell-based
H9c2 = assay: cells; format: functional, cell-based; conditions: Rattus norvegicus, H9c2, Myocardium;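 note: confirmatory concentration-response retest of ultra-high-throughput screening hits for modulation of myocardial damage; cell death induced by hydrogen peroxide oxidative stress; compound pretreatment for 60 min then peroxide exposure for 2 h; potency is for protecting the cells against peroxide damage rather than for killing them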
[6] = MC4R antagonists, dose response, counter-screen for LGR2 antagonist project, cell-based, plate reader, cherry pick (AID 743444); format: functional;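 note: transfected HEK 293 cells stimulated with alpha-MSH peptide; potency of inhibitors of the alpha-MSH evoked signal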
[7] = molecular target: T1, Type-1 angiotensin II receptor (Homo sapiens, UniProt P30556); assay: AT1 receptor agonists, dose response, selectivity assay for APJ receptor agonist project, cell-based, uHTS hits (AID 488865); format: functional;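 note: beta-arrestin recruitment to AT1 measured by enzyme fragment complementation luminescence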
T1 sequence (P30556 whole entry): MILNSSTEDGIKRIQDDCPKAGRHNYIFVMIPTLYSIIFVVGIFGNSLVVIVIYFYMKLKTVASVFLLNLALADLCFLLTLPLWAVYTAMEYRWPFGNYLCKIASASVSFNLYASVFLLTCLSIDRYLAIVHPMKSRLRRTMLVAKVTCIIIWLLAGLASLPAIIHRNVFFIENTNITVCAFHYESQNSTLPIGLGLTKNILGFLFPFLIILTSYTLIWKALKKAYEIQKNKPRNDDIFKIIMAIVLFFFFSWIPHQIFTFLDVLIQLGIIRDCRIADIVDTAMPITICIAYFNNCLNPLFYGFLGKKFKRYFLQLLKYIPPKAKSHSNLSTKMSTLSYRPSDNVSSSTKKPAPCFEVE

[8] = HepG2 cell cytotoxicity, dose response, cytotoxicity control, plate reader, cherry-pick, antagonist series (AID 743416); format: functional, cell-based
[9] = A549 cell cytotoxicity, dose response, cytotoxicity control, plate reader, cherry-pick, antagonist series (AID 743412); format: functional, cell-based
cells [10] = format: functional, cell-based; remark: listed apart in the source
[11] = molecular target: Eukaryotic translation initiation factor 4E (Mus musculus, UniProt P63073); assay: eIF4E–eIF4G protein interaction inhibitors, dose response, biochemical, TR-FRET (AID 855); format: functional;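 note: potency for disrupting eIF4E binding to eIF4GI seen as loss of FRET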
Sequence of Eukaryotic translation initiation factor 4E (P63073 whole entry): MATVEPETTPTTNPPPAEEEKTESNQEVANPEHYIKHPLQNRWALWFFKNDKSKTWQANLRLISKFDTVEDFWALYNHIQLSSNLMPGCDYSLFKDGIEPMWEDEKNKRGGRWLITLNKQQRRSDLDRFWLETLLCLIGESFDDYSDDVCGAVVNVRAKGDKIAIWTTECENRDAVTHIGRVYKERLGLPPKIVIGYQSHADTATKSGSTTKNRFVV

SUMO-activating enzyme [12] = molecular target: T2, SUMO-activating enzyme (Homo sapiens, UniProt Q9UBT2); assay: inhibitors of in vitro SUMOylation cascade, primary screen, biochemical, HTRF, uHTS (AID 2006); format: protein-complex assay
T2 sequence (Q9UBE0 whole entry): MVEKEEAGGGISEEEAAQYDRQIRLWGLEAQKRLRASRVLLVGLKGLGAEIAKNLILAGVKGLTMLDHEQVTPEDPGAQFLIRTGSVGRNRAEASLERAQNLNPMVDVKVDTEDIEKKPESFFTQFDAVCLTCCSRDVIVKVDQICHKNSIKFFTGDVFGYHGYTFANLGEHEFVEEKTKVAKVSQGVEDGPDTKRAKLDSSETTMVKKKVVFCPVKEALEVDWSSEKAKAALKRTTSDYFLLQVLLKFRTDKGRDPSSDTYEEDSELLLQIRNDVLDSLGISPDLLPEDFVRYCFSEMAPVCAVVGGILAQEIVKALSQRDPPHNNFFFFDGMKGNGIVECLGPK
T2 sequence (Q9UBT2 whole entry): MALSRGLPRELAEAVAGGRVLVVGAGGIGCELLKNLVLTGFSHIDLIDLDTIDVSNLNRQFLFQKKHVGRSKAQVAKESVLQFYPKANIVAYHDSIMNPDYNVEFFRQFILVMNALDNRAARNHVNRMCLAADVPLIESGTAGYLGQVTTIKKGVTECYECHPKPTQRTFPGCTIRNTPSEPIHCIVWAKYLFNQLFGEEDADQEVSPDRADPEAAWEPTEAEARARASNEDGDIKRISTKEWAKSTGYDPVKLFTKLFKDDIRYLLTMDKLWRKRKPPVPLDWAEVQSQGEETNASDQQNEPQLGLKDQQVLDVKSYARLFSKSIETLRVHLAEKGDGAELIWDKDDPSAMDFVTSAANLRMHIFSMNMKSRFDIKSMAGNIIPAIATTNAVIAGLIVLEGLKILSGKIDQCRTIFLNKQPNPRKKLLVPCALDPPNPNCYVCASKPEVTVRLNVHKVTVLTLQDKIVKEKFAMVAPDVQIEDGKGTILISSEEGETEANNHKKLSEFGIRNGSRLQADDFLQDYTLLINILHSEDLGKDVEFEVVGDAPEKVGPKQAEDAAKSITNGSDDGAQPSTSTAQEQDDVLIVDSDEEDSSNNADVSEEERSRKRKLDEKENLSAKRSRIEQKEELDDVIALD

[13] = molecular target: T3, Long-chain-fatty-acid--AMP ligase FadD28 (Mycobacterium tuberculosis, UniProt P9WQ59); assay: Fluorescence polarization aasay to screen for inhibitors that compete for the binding of FadD28 to a bisubstrate Measured in Biochemical System Using Plate Reader - 2147-01_Inhibitor_Dose_CherryPick_Activity.; format: functional, Mycobacterium tuberculosis H37Rv
T3 sequence (P9WQ59 whole entry): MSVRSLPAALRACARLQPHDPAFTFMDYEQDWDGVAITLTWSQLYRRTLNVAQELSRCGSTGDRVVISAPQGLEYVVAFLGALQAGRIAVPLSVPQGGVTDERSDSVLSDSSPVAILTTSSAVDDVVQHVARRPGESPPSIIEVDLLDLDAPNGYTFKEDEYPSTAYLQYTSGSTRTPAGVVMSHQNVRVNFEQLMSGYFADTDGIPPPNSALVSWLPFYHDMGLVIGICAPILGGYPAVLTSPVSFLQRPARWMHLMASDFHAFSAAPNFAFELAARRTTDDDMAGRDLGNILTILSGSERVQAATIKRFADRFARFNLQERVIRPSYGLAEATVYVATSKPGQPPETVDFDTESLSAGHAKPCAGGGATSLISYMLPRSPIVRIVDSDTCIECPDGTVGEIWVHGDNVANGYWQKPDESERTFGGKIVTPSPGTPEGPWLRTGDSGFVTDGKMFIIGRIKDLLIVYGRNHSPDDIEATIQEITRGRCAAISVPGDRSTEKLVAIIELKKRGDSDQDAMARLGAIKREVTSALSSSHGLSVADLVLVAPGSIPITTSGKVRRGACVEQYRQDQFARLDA

SUMO-activating enzyme [14] = molecular target: T2, SUMO-activating enzyme; assay: SUMOylation inhibitor hit validation, confirmation, SUMOylation inhibitor project, biochemical, AlphaScreen (AID 2018); format: functional
[15] = molecular target: T4, E3 ubiquitin-protein ligase XIAP (Homo sapiens, UniProt P98170); assay: XIAP antagonists, biochemical, IAP family, fluorescence polarization (AID 1018); format: functional
T4 sequence (P98170 whole entry): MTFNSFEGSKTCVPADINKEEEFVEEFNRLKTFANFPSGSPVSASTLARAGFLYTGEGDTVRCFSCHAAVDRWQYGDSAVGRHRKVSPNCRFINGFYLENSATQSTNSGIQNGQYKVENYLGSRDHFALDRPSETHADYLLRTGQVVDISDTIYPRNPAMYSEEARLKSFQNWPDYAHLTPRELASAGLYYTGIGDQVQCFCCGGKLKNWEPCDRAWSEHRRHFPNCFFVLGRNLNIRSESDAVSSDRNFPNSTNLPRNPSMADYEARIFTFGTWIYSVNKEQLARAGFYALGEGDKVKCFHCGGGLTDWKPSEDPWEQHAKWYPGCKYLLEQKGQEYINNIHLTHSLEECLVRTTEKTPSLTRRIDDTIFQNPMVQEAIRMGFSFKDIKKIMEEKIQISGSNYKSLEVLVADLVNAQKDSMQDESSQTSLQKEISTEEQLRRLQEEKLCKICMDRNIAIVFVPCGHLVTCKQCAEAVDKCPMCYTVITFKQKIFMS

[16] = molecular target: T4, E3 ubiquitin-protein ligase XIAP; assay: Counter Screen using XIAP-Bir3 for Chemical Antagonists of Bir1/2 domains of IAP-family anti-apoptotic proteins. [Related pubchem assays (depositor defined):AID1018, AID1449, AID1514, AID1638, AID1749, AID1750, AID488957, AID488963]
[17] = molecular target: G-protein coupled receptor 55 (Homo sapiens, UniProt Q9Y2T6); assay: GPR55 agonists via beta-arrestin recruitment, primary screen, imaging, U2OS cells, beta-arrestin-GFP redistribution (AID 1961); format: functional
Sequence of G-protein coupled receptor 55 (Q9Y2T6 whole entry): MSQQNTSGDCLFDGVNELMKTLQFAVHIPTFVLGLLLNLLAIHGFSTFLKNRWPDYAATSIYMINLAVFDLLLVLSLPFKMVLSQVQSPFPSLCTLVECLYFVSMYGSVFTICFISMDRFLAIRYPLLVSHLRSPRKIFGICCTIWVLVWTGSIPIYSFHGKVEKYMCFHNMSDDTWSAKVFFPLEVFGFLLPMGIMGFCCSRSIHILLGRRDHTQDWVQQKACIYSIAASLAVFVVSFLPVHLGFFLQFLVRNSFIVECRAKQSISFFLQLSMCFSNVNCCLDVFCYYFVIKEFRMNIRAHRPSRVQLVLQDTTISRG

Cn1nc(-c2ccccc2)c(C(=O)Nc2ccc(C(F)(F)F)cc2)c1Cl
EC50 (Troponin, cardiac muscle): > 71.5 µM (inactive)
EC50 [1]: > 79.4 µM (not active)
EC50 [2]: > 79.4 µM (not active)
EC50 [3]: > 79.4 µM (not active)

CC(C)C(=O)N1CCN(c2ccc(NC(=O)COc3ccccc3[N+](=O)[O-])cc2)CC1
AC50 [4]: 31.2 µM (active)
EC50 (cells [5]): > 350 µM (not active)
IC50 (H9c2): > 79 µM (inactive)
AC50 [6]: 20 µM (active)
EC50 [7]: > 100 µM (inactive)
AC50 [8]: 41.7 µM (active)
AC50 [9]: > 52 µM (inactive)
EC50 (cells [10]): > 350 µM (not active)

Cc1ccc(NC(=O)CN2C(=O)S/C(=C\c3ccc(-c4cccc(C(=O)O)c4C)o3)C2=O)cc1C
IC50 [11]: 27.9 µM (active)
IC50 (SUMO-activating enzyme [12]): 6.48 µM (active)
AC50 [13]: 52.8 µM (active)
IC50 (SUMO-activating enzyme [14]): 6.11 µM (active)

Cc1ccc(NS(=O)(=O)c2cc(C(=O)N(C)C)ccc2C)cc1C
IC50 [15]: > 100 µM (not active)
IC50 [16]: > 100 µM (inactive)

CCC(C)NC(=O)C(=O)NC1CCCC1 (stereo unspecified)
IC50 [15]: > 100 µM (not active)
IC50 [16]: > 100 µM (inactive)

Cc1cc(C)c(/C=N/NC(=O)c2nnn(-c3nonc3N)c2CN2CCC(C)CC2)c(C)c1
EC50 [17]: 8.18 µM (active)
